Results published in PMC10178204, “Peptaibol Analogs Show Potent Antibacterial Activity against Multidrug Resistant Opportunistic Pathogens” (International Journal of Molecular Sciences, 2023).
≈ marks a conversion by molar mass, not a printed value. Where “and” joins values, the source holds several entries; their conditions need not be identical. Equal entries are not always repeated.

Legend:
[1] = system: A. baumannii SI-648 (OXA-23, OXA-51-like); settings: MHB, 5 × 10^5 CFU/mL, 18 h, 35 °C, triplicate
Outline: (§1)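 Peptides came from DMSO stocks of 25 mg/mL. Strains were clinical MDR isolates producing metallo-β-lactamase (P. aeruginosa) or class D carbapenemase (A. baumannii).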

[2] = system: A. baumannii SI-12 (OXA-23); settings: MHB, 5 × 10^5 CFU/mL, 18 h, 35 °C, triplicate
Outline: as §1

[3] = system: P. aeruginosa VA-182/00 (VIM-2); settings: MHB, 5 × 10^5 CFU/mL, 18 h, 35 °C, triplicate
Outline: as §1

[4] = system: P. aeruginosa 506/99 (VIM-2); settings: MHB, 5 × 10^5 CFU/mL, 18 h, 35 °C, triplicate
Outline: as §1

[5] = system: P. aeruginosa 101/1477 (IMP-1); settings: MHB, 5 × 10^5 CFU/mL, 18 h, 35 °C, triplicate
Outline: as §1

[6] = system: S. aureus ATCC 43300 (MRSA); settings: MHB, 5 × 10^5 CFU/mL, 18 h, 35 °C, triplicate
[7] = system: A. baumannii SI-310 (OXA-24); settings: colistin-resistant isolate; MHB, 5 × 10^5 CFU/mL, 18 h, 35 °C, triplicate
Outline: as §1

[8] = system: P. aeruginosa VR-143/97 (VIM-1); settings: MHB, 5 × 10^5 CFU/mL, 18 h, 35 °C, triplicate
Outline: as §1

[9] = system: Klebsiella pneumoniae ATCC 13833; settings: MHB, 5 × 10^5 CFU/mL, 18 h, 35 °C, triplicate
Outline: (§2)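 Broth microdilution in Mueller–Hinton broth, run in triplicate, inoculum 5 × 10^5 CFU/mL per CLSI M07-A10; MIC and MBC both determined. Peptides dissolved in DMSO at 25 mg/mL as stock.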

[10] = system: Enterococcus faecalis ATCC 29212; settings: MHB, 5 × 10^5 CFU/mL, 18 h, 35 °C, triplicate
Outline: as §2

[11] = system: Staphylococcus aureus ATCC 25923; settings: MHB, 5 × 10^5 CFU/mL, 18 h, 35 °C, triplicate
Outline: as §2

[12] = system: Pseudomonas aeruginosa ATCC 27853; settings: MHB, 5 × 10^5 CFU/mL, 18 h, 35 °C, triplicate
Outline: as §2

[13] = system: Escherichia coli CCUGT; settings: MHB, 5 × 10^5 CFU/mL, 18 h, 35 °C, triplicate
Outline: as §2

[14] = system: Streptococcus pyogenes ATCC 12344; settings: MHB, 5 × 10^5 CFU/mL, 18 h, 35 °C, triplicate
Outline: as §2

[15] = system: reference Gram-positive and Gram-negative strains; settings: lowest value over the eight reference strains
Outline: as §2

[16] = system: Bacillus subtilis ATCC 6633; settings: MHB, 5 × 10^5 CFU/mL, 18 h, 35 °C, triplicate
Outline: as §2

[17] = system: Acinetobacter baumannii ATCC 17978
Outline: as §2

[18] = system: blood agar plate (Columbia CNA Agar); assay: Hemolysis on blood agar plate; settings: 50 μg spotted on blood agar, 35 ± 2 °C, 24 h
Experimental: Hemolysis zones were visually determined and measured. […] For two additional peptides (6 and 15), only a small hemolysis zone (diameter 4–5 mm) was visible, as compared to that of the positive control (Triton X-100, 13 mm).
Briefly, 2 μL of each peptide solution in DMSO (25 mg/mL), corresponding to 50 μg, was spotted on the surface of a blood agar plate (Columbia CNA Agar, Becton Dickinson Italia S.p.A., Florence, Italy). The plate was then incubated at 35 ± 2 °C for 24 h and visually inspected for the presence of hemolysis zones (see Figure S13, Supplementary Material). The experiment was performed in triplicate. Table 2 reports the average value of the diameter of hemolysis zones measured in each individual experiment. Triton X-100 was used as a positive control (diameter of the hemolysis zone: 13 mm), while DMSO was used as a negative control.
Figure S13. Implementation of the hemolysis test as described in Bechlars et al.. After spotting
2 µL (50 µg) of each compound at a random location on the blood agar plate and incubation at 35 ±
2 °C for 24 h, the plates were manually inspected for the presence of hemolysis zones. Triton X-100
and DMSO were used as the positive and negative controls, respectively. Results were interpreted
(1 picture or pasted object on this page, not shown here)

[19] = MHB, 5 × 10^5 CFU/mL, 18 h, 35 °C, triplicate

CCCCCCCC(=O)NC(C)(C)C(=O)NCC(=O)N[C@@H](CC(C)C)C(=O)NC(C)(C)C(=O)N[C@@H](CCCCN)C(=O)N[C@@H](CCCCN)C(=O)N[C@@H](CC(C)C)C(=O)NC(C)(C)C(=O)NCC(=O)N[C@H](C(=O)N[C@H](CO)CC(C)C)[C@@H](C)CC [Peptide 4, 1-Oct-Aib-Gly-Leu-Aib-Lys-Lys-Leu-Aib-Gly-Ile-Lol]
MBC A. baumannii SI-648 (OXA-23, OXA-51-like) [1]: 4 µg/mL (≈ 3.31 µM)
MIC A. baumannii SI-648 (OXA-23, OXA-51-like) [1]: 4 μg/mL and 4/4 μg/mL
MBC A. baumannii SI-12 (OXA-23) [2]: 4 µg/mL (≈ 3.31 µM)
MIC A. baumannii SI-12 (OXA-23) [2]: 2 µg/mL (≈ 1.65 µM)
MBC P. aeruginosa VA-182/00 (VIM-2) [3]: 32 µg/mL (≈ 26.5 µM)
MIC P. aeruginosa VA-182/00 (VIM-2) [3]: 16 µg/mL (≈ 13.2 µM)
MBC P. aeruginosa 506/99 (VIM-2) [4]: 16 µg/mL (≈ 13.2 µM)
MIC P. aeruginosa 506/99 (VIM-2) [4]: 16 µg/mL (≈ 13.2 µM)
MBC P. aeruginosa 101/1477 (IMP-1) [5]: 16 µg/mL (≈ 13.2 µM)
MIC P. aeruginosa 101/1477 (IMP-1) [5]: 8 µg/mL (≈ 6.62 µM)
MBC S. aureus ATCC 43300 (MRSA) [6]: 8 µg/mL (≈ 6.62 µM)
MIC S. aureus ATCC 43300 (MRSA) [6]: 4 µg/mL (≈ 3.31 µM)
MBC A. baumannii SI-310 (OXA-24) [7]: 8 µg/mL (≈ 6.62 µM)
MIC A. baumannii SI-310 (OXA-24) [7]: 4 µg/mL (≈ 3.31 µM)
MBC P. aeruginosa VR-143/97 (VIM-1) [8]: 32 µg/mL (≈ 26.5 µM)
MIC P. aeruginosa VR-143/97 (VIM-1) [8]: 16 µg/mL (≈ 13.2 µM)
MBC Kpn [9]: 32 µg/mL (≈ 26.5 µM)
MIC Kpn [9]: 16 µg/mL (≈ 13.2 µM)
MBC Efa [10]: 8 µg/mL and 4 µg/mL
MIC Efa [10]: 2 µg/mL (≈ 1.65 µM)
MBC Sau [11]: 16 µg/mL (≈ 13.2 µM)
MIC Sau [11]: 16 µg/mL (≈ 13.2 µM)
MBC Pae [12]: 16 µg/mL (≈ 13.2 µM)
MIC Pae [12]: 8 µg/mL (≈ 6.62 µM)
MBC Eco [13]: > 16 µg/mL
MIC Eco [13]: 16 µg/mL (≈ 13.2 µM)
MBC Spy [14]: 2 µg/mL (≈ 1.65 µM)
MIC Spy [14]: 2 µg/mL (≈ 1.65 µM)
lowest MIC [15]: 2 µg/mL
MIC Bsu [16]: 2 µg/mL (≈ 1.65 µM)
MBC Aba [17, 19]: 2 µg/mL (≈ 1.65 µM)
MIC Aba [17, 19]: 2 µg/mL (≈ 1.65 µM)
MIC against A. baumannii, in molar units ([17]; corresponding to 2 and 8 μg/mL): 1.8 to 7.2 µM
Hemolytic activity (in words) [18]: non-hemolytic
